Experimental data reported in ChEMBL document CHEMBL1152909, “Low molecular weight non-peptide mimics of omega-conotoxin GVIA” (Bioorg Med Chem Lett, 2009).
Active and inactive are the calls of the source. The rule behind the calls is not given here.

target: Voltage-dependent N-type calcium channel subunit alpha-1B (Rattus norvegicus) (UniProt Q02294); assay: (§1) Inhibition of rat neuronal Cav2.2 channel
Sequence (Q02294 whole entry, looked up): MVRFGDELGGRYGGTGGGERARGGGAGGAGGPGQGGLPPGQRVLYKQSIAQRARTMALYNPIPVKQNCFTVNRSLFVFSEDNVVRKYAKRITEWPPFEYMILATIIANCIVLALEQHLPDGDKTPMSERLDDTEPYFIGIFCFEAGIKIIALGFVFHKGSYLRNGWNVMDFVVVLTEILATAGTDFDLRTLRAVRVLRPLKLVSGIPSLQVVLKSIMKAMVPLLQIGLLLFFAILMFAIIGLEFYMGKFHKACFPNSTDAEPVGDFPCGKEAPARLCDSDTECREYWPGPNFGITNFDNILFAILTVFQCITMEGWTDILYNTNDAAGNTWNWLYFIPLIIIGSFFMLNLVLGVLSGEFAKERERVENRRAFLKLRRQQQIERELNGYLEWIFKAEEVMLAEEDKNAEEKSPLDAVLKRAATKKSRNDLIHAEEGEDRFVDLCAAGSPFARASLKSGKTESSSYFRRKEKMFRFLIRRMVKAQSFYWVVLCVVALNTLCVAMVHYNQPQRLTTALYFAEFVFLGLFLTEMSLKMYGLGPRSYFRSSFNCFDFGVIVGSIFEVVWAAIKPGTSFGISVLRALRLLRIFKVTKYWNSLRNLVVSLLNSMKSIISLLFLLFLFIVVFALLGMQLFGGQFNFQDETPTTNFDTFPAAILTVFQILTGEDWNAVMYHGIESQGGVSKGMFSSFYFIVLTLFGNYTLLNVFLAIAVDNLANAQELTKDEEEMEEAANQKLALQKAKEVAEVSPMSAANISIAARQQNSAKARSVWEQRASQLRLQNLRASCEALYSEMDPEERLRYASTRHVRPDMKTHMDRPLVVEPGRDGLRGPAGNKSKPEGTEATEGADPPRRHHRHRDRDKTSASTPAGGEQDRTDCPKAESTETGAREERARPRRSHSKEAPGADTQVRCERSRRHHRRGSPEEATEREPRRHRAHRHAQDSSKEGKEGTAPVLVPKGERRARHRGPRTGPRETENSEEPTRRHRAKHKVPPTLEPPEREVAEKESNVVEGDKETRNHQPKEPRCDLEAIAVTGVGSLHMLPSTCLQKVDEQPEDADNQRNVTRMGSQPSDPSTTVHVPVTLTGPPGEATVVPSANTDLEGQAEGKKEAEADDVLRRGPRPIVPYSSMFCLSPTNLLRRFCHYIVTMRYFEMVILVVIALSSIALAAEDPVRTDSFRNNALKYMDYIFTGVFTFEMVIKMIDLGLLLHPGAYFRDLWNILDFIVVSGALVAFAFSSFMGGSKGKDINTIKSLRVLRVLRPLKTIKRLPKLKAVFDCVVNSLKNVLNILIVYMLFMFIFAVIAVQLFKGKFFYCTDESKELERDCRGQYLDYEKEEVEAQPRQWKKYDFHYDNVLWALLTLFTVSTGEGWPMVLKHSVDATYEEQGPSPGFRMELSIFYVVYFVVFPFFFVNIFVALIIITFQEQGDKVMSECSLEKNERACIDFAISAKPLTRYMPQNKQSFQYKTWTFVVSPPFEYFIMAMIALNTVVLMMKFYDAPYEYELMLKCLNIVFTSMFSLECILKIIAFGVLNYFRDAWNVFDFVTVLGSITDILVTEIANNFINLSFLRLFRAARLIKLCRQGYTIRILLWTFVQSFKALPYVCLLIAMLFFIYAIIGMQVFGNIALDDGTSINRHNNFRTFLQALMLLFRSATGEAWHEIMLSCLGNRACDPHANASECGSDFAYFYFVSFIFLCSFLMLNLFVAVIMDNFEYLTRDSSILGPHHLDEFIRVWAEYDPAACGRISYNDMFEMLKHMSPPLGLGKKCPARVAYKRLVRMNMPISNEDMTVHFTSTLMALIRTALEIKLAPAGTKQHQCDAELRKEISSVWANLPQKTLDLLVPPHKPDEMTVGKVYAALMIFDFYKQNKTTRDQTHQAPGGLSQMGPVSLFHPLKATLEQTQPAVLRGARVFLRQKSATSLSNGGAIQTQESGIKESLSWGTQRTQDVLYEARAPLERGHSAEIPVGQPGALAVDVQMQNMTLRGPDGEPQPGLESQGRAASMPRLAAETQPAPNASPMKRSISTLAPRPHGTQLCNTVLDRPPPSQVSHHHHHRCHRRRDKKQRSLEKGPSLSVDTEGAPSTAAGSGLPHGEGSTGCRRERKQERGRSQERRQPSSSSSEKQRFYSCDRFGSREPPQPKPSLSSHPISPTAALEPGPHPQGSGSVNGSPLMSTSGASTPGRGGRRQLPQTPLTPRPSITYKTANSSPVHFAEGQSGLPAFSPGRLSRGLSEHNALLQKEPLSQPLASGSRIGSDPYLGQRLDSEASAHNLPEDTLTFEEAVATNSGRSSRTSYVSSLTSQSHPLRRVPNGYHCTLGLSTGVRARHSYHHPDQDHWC

SMILES | Activity
[N-]=[N+]=NCCCOc1ccc(CNc2nc3ccc(Oc4ccccc4)cc3s2)cc1 | inactive
Oc1ccc(CNc2nc3ccc(Oc4ccccc4)cc3s2)cc1 | inactive
CC(C)(C)OC(=O)NCCCOc1ccc(CNc2nc3ccc(Oc4ccccc4)cc3s2)cc1 | inactive
ClCCCOc1ccc(CNc2nc3ccc(Oc4ccccc4)cc3s2)cc1 | inactive

target: Voltage-dependent N-type calcium channel subunit alpha-1B (Rattus norvegicus, UniProt Q02294); assay: as §1
Sequence (Q02294 whole entry): as the sequence (Q02294 whole entry, looked up) above

SMILES | EC50 [µM]
NC(N)=NCCCOc1ccc(CNCC(c2ccccc2)c2ccccc2)cc1 | 12
NCCCOc1ccc(CNc2nc3ccc(Oc4ccccc4)cc3s2)cc1 | 76
NCCCOc1ccc(CNc2ccc(Oc3ccccc3)cc2)cc1 | 34
NC(N)=NCCCOc1ccc(CNC(c2ccccc2)c2ccccc2)cc1 | 23
NCCCOc1ccc(CNCC(c2ccccc2)c2ccccc2)cc1 | > 100
NCCCOc1ccc(CN(C(=O)c2ccccc2OCCCN)c2nc3ccc(Oc4ccc(O)cc4)cc3s2)cc1 | 3.18
NCCCOc1ccccc1C(=O)N(Cc1ccc(OCCCN=C(N)N)cc1)c1nc2ccc(Oc3ccc(O)cc3)cc2s1 | 1.78
NC(N)=NCCCOc1ccc(CNc2nc3ccc(Oc4ccccc4)cc3s2)cc1 | 5.8
NCCCOc1ccc(CNC(c2ccccc2)c2ccccc2)cc1 | > 100
NCCCOc1ccccc1C(=O)N(Cc1ccc(OCCCN=C(N)N)cc1)c1nc2ccc(Oc3ccccc3)cc2s1 | 3.08
NC(N)=NCCCOc1ccc(CNc2ccc(Oc3ccccc3)cc2)cc1 | 21
NCCCOc1ccccc1C(=O)Nc1nc2ccc(Oc3ccccc3)cc2s1 | > 100
NC(N)=NCCCOc1ccccc1C(=O)Nc1nc2ccc(Oc3ccccc3)cc2s1 | 33
